Results on 12 molecules are retold here after PubChem BioAssay AID504479 (NMMLSC, 2011).

The source made the active and inactive calls.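 How the source made its calls: active means GFP ratio vs DMSO below 0.65 in a strain, using the primary screen cutoff set for that strain's protein target; inactive means the rest.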

Among the test systems are YKL103C; YCR005C; YCL025C; YNL142W; BY4741; YBR084C-A.
Common to all, as to assay: TORC1 pathway position of GFP reporter effects – S. cerevisiae, TORC1 bypass vs wild-type strains, mechanism study for yeast TOR pathway modulator project (AID 504479)
Common to all, as to settings: fluorescence ratio vs DMSO, at 10 µM

Setting [1] is: LAP4-GFP in TORC1 bypass strain, stronger effect = higher value.
Where [2] appears, read: CIT2-GFP in TORC1 bypass strain, stronger effect = higher value.
The mark [3] stands for this setting: AGP1-GFP in TORC1 bypass strain, stronger effect = higher value.
[4] abbreviates: MEP2-GFP in TORC1 bypass strain, stronger effect = higher value.
[5] abbreviates: RPL19A-GFP in TORC1 bypass strain, stronger effect = lower value.

On to `COc1ccc([N+](=O)[O-])c(S(=O)(=O)c2ccc(Cl)cc2)n1`, for which the GFP ratio vs DMSO in the test with YKL103C (setting [1]) was 1.92; in the test with YKL103C, 2.84; in the test on YCR005C (setting [2]), 0.761; with YCR005C, 0.9 (inactive); with YCL025C (setting [3]) it was 0.905; in the test with YCL025C, 1.18 (inactive). For the same molecule, the GFP ratio vs DMSO in the test with YNL142W (setting [4]) was 1.01; in the test on YNL142W, 1.24 (inactive); in the test with BY4741, 1.04 (inactive); in the test with YBR084C-A (setting [5]), 0.937; in the test on YBR084C-A it was 0.829 (inactive).
For `O=C(CCc1ccccc1)NNC(=S)NC(=O)c1ccccc1`, the GFP ratio vs DMSO with YKL103C (setting [1]) is 1.88; in the test with YKL103C it was 3.08; in the test with YCR005C (setting [2]), 0.847; in the test on YCR005C, 1.04 (inactive); in the test on YCL025C (setting [3]), 0.882; in the test on YCL025C it was 1.09 (inactive). The GFP ratio vs DMSO with YNL142W (setting [4]) was 1.28; in the test on YNL142W it was 1.3 (inactive); in the test on BY4741, 1.32 (inactive); in the test on YBR084C-A (setting [5]) it was 1.33; with YBR084C-A, 1.31 (inactive).
With `CC(C)(C)C(=O)C(Cl)C(=O)Nc1ccccc1` (configuration not stated), the GFP ratio vs DMSO with YKL103C (setting [1]) is 1.5; in the test with YKL103C it was 2.76; in the test on YCR005C (setting [2]), 1.58; with YCR005C, 1.65; with YCL025C (setting [3]) it was 0.833; in the test on YCL025C, 1.2 (inactive). Besides, the GFP ratio vs DMSO in the test with YNL142W (setting [4]) was 0.969; in the test with YNL142W it was 1.24 (inactive); in the test with BY4741, 0.941 (inactive); in the test with YBR084C-A (setting [5]) it was 0.997; in the test with YBR084C-A it was 0.885 (inactive).
Take `Cc1ccc(C(c2cc(Cl)c3cccnc3c2O)N2CCN(C)CC2)cc1` (configuration not stated): the GFP ratio vs DMSO in the test on YKL103C (setting [1]) is 1.23; in the test on YKL103C it was 1.63; in the test with YCR005C (setting [2]) it was 0.583; in the test with YCR005C it was 0.808 (inactive); in the test on YCL025C (setting [3]), 0.652; in the test on YCL025C it was 0.76 (inactive). Moreover, the GFP ratio vs DMSO with YNL142W (setting [4]) was 1.03; with YNL142W, 0.862 (inactive); with BY4741 it was 0.736 (inactive); with YBR084C-A (setting [5]), 0.949; with YBR084C-A it was 0.938 (inactive).
With `Clc1ccc(N=c2ssnc2Cl)cc1`, the GFP ratio vs DMSO is 1.29 with YKL103C (setting [1]); 1.64 in the test on YKL103C; 1.02 in the test with YCR005C (setting [2]); 1.25 (inactive) in the test with YCR005C; 0.884 with YCL025C (setting [3]); 0.946 (inactive) in the test on YCL025C. Also, the GFP ratio vs DMSO in the test with YNL142W (setting [4]) is 1.08; with YNL142W, 1.04 (inactive); in the test on BY4741, 1.09 (inactive); with YBR084C-A (setting [5]), 1.08; in the test with YBR084C-A it was 1.02 (inactive).
Consider `CO[C@H]1C[C@@H]2CC[C@@H](C)[C@@](O)(O2)C(=O)C(=O)N2CCCC[C@H]2C(=O)O[C@H]([C@H](C)C[C@@H]2CC[C@@H](O)[C@H](OC)C2)CC(=O)[C@H](C)/C=C(\C)[C@@H](O)[C@@H](OC)C(=O)[C@H](C)C[C@H](C)/C=C/C=C/C=C/1C`, for which the GFP ratio vs DMSO in the test on YKL103C (setting [1]) is 1.17; in the test with YKL103C it was 2.52; in the test with YCR005C (setting [2]), 2.4; with YCR005C, 3.29; in the test with YCL025C (setting [3]), 1.51; in the test with YCL025C it was 2.28. The GFP ratio vs DMSO in the test with YNL142W (setting [4]) is 1.01; with YNL142W, 12.5; in the test on BY4741, 1.1 (inactive); in the test with YBR084C-A (setting [5]) it was 0.67; in the test with YBR084C-A it was 0.597.
Take `Cn1ncc(S(=O)(=O)Cc2ccccc2)c(Cl)c1=O`: the GFP ratio vs DMSO in the test on YKL103C (setting [1]) was 1.56; in the test with YKL103C, 1.63; in the test with YCR005C (setting [2]), 1.02; in the test with YCR005C it was 1.15 (inactive); in the test on YCL025C (setting [3]), 0.801; in the test with YCL025C it was 0.984 (inactive). Moreover, the GFP ratio vs DMSO was 0.971 in the test on YNL142W (setting [4]); 1.46 (inactive) in the test with YNL142W; 1.31 (inactive) in the test with BY4741; 0.786 in the test with YBR084C-A (setting [5]); 0.76 (inactive) with YBR084C-A.
On to `O=C1ON=C(c2ccccc2)/C1=C\c1ccco1`, for which the GFP ratio vs DMSO in the test on YKL103C (setting [1]) was 1.26; in the test with YKL103C, 1.97; with YCR005C (setting [2]), 0.826; in the test on YCR005C it was 1.1 (inactive); with YCL025C (setting [3]), 0.759; in the test on YCL025C, 1.01 (inactive). The GFP ratio vs DMSO with YNL142W (setting [4]) was 0.993; in the test with YNL142W, 1.1 (inactive); in the test on BY4741, 0.875 (inactive); with YBR084C-A (setting [5]), 0.897; in the test with YBR084C-A, 0.947 (inactive).
For `O=C(OCn1ncc(Br)c(Br)c1=O)c1c(F)cccc1F`, the GFP ratio vs DMSO with YKL103C (setting [1]) was 1.37; with YKL103C, 1.86; with YCR005C (setting [2]), 0.891; in the test on YCR005C it was 1.02 (inactive); with YCL025C (setting [3]), 0.715; in the test on YCL025C, 0.903 (inactive). The GFP ratio vs DMSO was 0.876 with YNL142W (setting [4]); 0.897 (inactive) in the test with YNL142W; 0.824 (inactive) with BY4741; 1.05 with YBR084C-A (setting [5]); 1 (inactive) with YBR084C-A.
Regarding `CCCOc1ccc(C(=O)NNC(=S)NC(=O)CC)cc1`, the GFP ratio vs DMSO in the test on YKL103C (setting [1]) is 1.92; in the test on YKL103C, 2.96; in the test on YCR005C (setting [2]), 0.905; in the test with YCR005C, 0.994 (inactive); with YCL025C (setting [3]), 0.969; in the test on YCL025C, 1.17 (inactive). For the same molecule, the GFP ratio vs DMSO with YNL142W (setting [4]) was 1.3; in the test with YNL142W, 1.24 (inactive); with BY4741, 1.32 (inactive); with YBR084C-A (setting [5]), 1.36; in the test with YBR084C-A it was 1.33 (inactive).
Regarding `COc1ccc(C(=O)NNC(=S)NC(=O)/C=C/c2cccs2)cc1`, the GFP ratio vs DMSO was 1.16 in the test on YKL103C (setting [1]); 1.72 in the test with YKL103C; 0.971 with YCR005C (setting [2]); 1.2 (inactive) in the test on YCR005C; 0.916 in the test with YCL025C (setting [3]); 1.18 (inactive) in the test with YCL025C. In addition, the GFP ratio vs DMSO in the test with YNL142W (setting [4]) was 1; in the test on YNL142W it was 1.15 (inactive); in the test on BY4741, 1.24 (inactive); in the test on YBR084C-A (setting [5]), 1.04; with YBR084C-A, 1.27 (inactive).
For the molecule `CCCCC(=O)NNC(=S)NC(=O)c1ccc(C)cc1`, the GFP ratio vs DMSO is 2.03 with YKL103C (setting [1]); 3.37 in the test with YKL103C; 0.942 in the test on YCR005C (setting [2]); 1.17 (inactive) in the test with YCR005C; 0.974 in the test with YCL025C (setting [3]); 1.1 (inactive) in the test with YCL025C. In addition, the GFP ratio vs DMSO in the test with YNL142W (setting [4]) is 1.24; with YNL142W it was 1.22 (inactive); in the test with BY4741, 1.56 (inactive); in the test with YBR084C-A (setting [5]) it was 1.34; in the test with YBR084C-A, 1.27 (inactive).
